Consider five compounds from paper PMC3195835 (International journal of pharmaceutics, 2011).

Series [1] deals with T1, P-gp (Homo sapiens, UniProt P08183). In words: in vitro. As to conditions: MDCK-MDR1.
The target in series [2] is T2, MRP2 (Homo sapiens, UniProt Q92887). In words: in vitro.
For series [3] the following is noted: ref Allen et al., 2000, Zhanel and Noreddin, 2001, cited from earlier work.
Another series relates to LS-180 cells. Nature of the series: [14C] erythromycin uptake in treated LS-180 cells. In kind it is cell-based, human. Conditions: LS-180 cells treated 72hrs; gemifloxacin 2.5, 5, 7.5μM, rifampin 10μM.
The subject of series [4] is MDCKII-MDR1 cells. Nature of the series: ATP assay in MDCKII-MDR1 cells. In kind it is cell-based, canine. As to conditions: 150min.
The target in series [5] is T2, MRP2. In words: cell-based.
Series [6] has as its target T1, P-gp. Nature of the series: cell-based.
The subject of series [7] is MDCKII-MRP2 cells. Nature of the series: Cell proliferative. In kind it is cell-based, canine. Conditions: 150min.
Series [8] addresses T1, P-gp. As to conditions: MDCK-MDR1, 150 min.
In series [9] the test system is MDCKII-MRP2 cells. Nature of the series: ATP assay in MDCKII-MRP2 cells. Type of series: cell-based, canine. Conditions: 150min.
Series [10] deals with MDCKII-MDR1 cells. In words: Cell proliferative. Type of series: cell-based, canine. As to conditions: 150min.
For series [11], the target named is T1, P-gp. Nature of the series: Cellular accumulation of calcein-AM in MDCKII-MDR1 cells. In kind it is cell-based. Conditions: calcein-AM 0.05μM, 15min, quinidine 100μM, gemifloxacin 250μM.
Setting [12] is: all concentrations 1μM to 1000μM except 1000μM.
Setting [13] is: gemifloxacin 1000μM, data not shown.
Where [14] appears, read: all other concentrations (1μM to below 1000μM).

T2 sequence (Q92887 whole entry): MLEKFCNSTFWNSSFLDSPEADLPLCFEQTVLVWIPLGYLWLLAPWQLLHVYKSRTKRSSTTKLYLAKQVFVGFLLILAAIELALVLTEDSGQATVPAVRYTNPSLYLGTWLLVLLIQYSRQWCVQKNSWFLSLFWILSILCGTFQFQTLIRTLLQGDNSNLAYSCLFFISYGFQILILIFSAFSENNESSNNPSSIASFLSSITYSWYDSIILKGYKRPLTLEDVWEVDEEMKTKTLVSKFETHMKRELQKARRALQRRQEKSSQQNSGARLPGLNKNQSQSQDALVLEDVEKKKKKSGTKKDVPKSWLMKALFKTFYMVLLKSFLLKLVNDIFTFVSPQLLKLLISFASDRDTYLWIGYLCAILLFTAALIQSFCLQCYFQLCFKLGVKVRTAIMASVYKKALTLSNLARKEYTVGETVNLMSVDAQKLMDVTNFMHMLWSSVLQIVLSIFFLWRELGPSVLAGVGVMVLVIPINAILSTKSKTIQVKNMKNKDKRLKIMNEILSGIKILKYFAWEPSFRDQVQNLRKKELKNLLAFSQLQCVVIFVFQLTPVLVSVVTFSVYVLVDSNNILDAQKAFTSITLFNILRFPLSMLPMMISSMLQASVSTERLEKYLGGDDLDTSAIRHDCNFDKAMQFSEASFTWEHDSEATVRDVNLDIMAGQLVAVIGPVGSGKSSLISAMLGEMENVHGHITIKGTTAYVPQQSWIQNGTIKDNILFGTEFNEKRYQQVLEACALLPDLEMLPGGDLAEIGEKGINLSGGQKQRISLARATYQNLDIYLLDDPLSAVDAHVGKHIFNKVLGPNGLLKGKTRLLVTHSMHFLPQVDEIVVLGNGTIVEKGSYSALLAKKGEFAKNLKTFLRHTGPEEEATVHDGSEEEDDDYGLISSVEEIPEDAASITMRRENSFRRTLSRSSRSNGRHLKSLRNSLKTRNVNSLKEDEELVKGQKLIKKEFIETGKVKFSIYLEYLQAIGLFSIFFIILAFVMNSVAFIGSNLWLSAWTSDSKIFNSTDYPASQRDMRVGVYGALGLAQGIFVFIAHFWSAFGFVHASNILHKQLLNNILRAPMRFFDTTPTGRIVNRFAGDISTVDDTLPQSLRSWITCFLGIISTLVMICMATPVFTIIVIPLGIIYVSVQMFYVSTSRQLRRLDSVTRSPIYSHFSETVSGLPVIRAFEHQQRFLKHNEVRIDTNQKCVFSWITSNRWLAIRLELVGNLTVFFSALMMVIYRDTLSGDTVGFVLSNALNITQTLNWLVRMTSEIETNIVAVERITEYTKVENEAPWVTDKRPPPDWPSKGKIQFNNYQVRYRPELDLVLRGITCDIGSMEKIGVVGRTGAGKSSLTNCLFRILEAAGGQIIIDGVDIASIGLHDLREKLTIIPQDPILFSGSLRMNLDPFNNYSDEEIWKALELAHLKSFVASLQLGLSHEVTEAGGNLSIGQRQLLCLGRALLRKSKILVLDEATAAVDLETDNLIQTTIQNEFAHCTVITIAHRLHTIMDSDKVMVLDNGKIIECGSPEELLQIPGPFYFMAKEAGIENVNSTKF
T1 sequence (P08183 whole entry): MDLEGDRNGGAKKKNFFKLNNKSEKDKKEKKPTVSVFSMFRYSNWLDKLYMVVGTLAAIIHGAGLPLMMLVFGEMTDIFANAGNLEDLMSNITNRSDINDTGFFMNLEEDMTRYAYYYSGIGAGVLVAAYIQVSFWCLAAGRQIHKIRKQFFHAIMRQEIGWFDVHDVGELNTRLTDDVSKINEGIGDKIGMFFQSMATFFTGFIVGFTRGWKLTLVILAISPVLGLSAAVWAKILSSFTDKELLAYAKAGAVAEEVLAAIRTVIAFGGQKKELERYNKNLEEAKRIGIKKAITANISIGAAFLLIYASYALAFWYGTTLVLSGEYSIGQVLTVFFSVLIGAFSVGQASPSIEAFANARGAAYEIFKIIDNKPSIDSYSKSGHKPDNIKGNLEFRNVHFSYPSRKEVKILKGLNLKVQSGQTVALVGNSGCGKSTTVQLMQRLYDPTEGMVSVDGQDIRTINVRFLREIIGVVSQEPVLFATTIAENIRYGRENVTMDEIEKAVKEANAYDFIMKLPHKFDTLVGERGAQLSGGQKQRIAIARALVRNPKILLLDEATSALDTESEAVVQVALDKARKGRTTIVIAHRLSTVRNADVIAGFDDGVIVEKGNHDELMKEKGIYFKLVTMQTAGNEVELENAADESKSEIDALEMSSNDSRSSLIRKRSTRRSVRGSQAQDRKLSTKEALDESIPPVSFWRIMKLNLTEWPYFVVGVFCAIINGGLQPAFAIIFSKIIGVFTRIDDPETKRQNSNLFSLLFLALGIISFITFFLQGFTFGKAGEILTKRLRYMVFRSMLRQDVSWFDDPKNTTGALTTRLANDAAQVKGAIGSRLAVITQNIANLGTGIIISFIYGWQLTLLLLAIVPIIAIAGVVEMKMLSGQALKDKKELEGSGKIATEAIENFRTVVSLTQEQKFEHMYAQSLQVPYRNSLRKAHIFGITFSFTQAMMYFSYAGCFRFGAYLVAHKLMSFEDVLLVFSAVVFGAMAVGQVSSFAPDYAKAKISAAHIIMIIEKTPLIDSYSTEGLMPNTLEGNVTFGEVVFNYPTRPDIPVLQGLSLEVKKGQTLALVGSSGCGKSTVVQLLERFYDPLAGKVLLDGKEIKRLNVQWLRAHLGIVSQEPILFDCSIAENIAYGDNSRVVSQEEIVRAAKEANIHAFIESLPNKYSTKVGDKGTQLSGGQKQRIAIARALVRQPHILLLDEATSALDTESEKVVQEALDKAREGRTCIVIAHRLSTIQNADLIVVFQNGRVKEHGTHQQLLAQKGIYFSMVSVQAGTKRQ

On to `CC[C@H]1OC(=O)[C@H](C)[C@@H](O[C@H]2C[C@@](C)(OC)[C@@H](O)[C@H](C)O2)[C@H](C)[C@@H](O[C@@H]2O[C@H](C)C[C@H](N(C)C)[C@H]2O)[C@](C)(O)C[C@@H](C)C(=O)[C@H](C)[C@@H](O)[C@]1(C)O` [[^14C] erythromycin, erythromycin], for which, on P-gp [1], the apical-to-basolateral permeability (Papp A→B) (usually the apparent permeability from the apical to the basolateral side of a cell layer) at 150 min came to 29.6 ± 3.7 nm/s; the Papp B→A (usually how fast a substance crosses the layer from the basolateral side) at 150 min came out at 106 ± 8.6 nm/s; the efflux ratio (as a rule, a quotient of directional permeabilities that is used to spot active efflux) at 150 min stood at 3.56. Besides, on MRP2 [2], the Papp A→B at 150 min is 37.6 ± 13.7 nm/s, the Papp B→A at 150 min worked out at 185 ± 19.4 nm/s and the efflux ratio at 150 min amounted to 4.93.

Regarding `COc1c(N2CCNC(C)C2)c(F)cc2c(=O)c(C(=O)O)cn(C3CC3)c12` (stereo not drawn) [gatifloxacin], the “Absolute (oral) bioavailability” value in [3] is 96%.

As for `CO/N=C1\CN(c2nc3c(cc2F)c(=O)c(C(=O)O)cn3C2CC2)CC1CN` (stereo not drawn) [gemifloxacin], the “Decrease in cellular accumulation of [14C] erythromycin post treatment” value with LS-180 cells was roughly 20%. The “Effect on ATP levels compared to control” value in the series with MDCKII-MDR1 cells [4] (setting [12]) and with MDCKII-MRP2 cells [9] (setting [12]) was “did not significantly alter ATP levels” each time. The results for the “Increase in ATP level” value with MDCKII-MDR1 cells [4] (setting [13]) and in the series on MDCKII-MRP2 cells [9] (setting [13]) were roughly 15% and roughly 10%, respectively. Further, the figures for the IC50 against MRP2 [5] and at P-gp [6] were 16 ± 2 µM and 123 ± 2 µM, respectively. For the same compound, in series [3] (oral administration), the “Time to peak concentration” value was 0.5 to 2 h. In addition, in series [3], the “Absolute (oral) bioavailability” value is 71%. The “Cytotoxicity (MTS)” value with MDCKII-MRP2 cells [7] (setting [14]) and in the series on MDCKII-MDR1 cells [10] (setting [14]) was “non-cytotoxic” in each case. Also, the “Decrease in cell viability (MTS)” value is roughly 20% in the series on MDCKII-MRP2 cells [7] (setting [13]) and roughly 25% in the series on MDCKII-MDR1 cells [10] (setting [13]). For the same compound, the “Apparent permeability of [14C] erythromycin, AP-BL, in presence of test compound” value on P-gp [8] is given as 5.24 ± 0.52 × 10-6 cm/sec. Further, the “Apparent permeability of [14C] erythromycin, BL-AP, in presence of test compound” value at P-gp [8] was 7.38 ± 0.72 × 10-6 cm/sec.

In the case of `C=C[C@H]1C[N@@]2CC[C@H]1C[C@@H]2[C@@H](O)c1ccnc2ccc(OC)cc12` [quinidine], the “Increase in intracellular calcein fluorescence” value at P-gp [11] is “doubled”.

In the case of `CO[C@H]1/C=C/O[C@@]2(C)Oc3c(C)c(O)c4c(O)c(c(/C=N/N5CCN(C)CC5)c(O)c4c3C2=O)NC(=O)/C(C)=C\C=C\[C@H](C)[C@H](O)[C@@H](C)[C@@H](O)[C@@H](C)[C@H](OC(C)=O)[C@@H]1C` [rifampin], in the series on LS-180 cells, the “Decrease in cellular accumulation of [14C] erythromycin post treatment” value is roughly 20%.
